Experimental data as given in PubChem BioAssay AID2060618 (Molecular Pharmacology Branch, DTP, NCI, 2025).

Test system: 454973-116-R2-J3-PDC spheroids, percent test/control viability
Test: Anticancer human tumor 454973-116-R2-J3-PDC patient-derived pancreatic carcinoma cell line growth inhibition [CLK]
Settings: spheroids with HUVEC and MSC; for IC50: curve of first compound; for viability, T/C: stronger effect = lower value
Method in brief: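 Patient-derived tumor cells grown as complex spheroids with HUVEC endothelial cells and mesenchymal stem cells, treated with drug combinations. Concentrations descend in half-log steps from near clinical Cmax, or from 10 microM if Cmax unknown.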
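Further: spheroids exposed to compounds for 7 days before readout.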

- IC50 (second compound 0.0316 µM): 2.55 nM
- IC50 (second compound 0.1 µM): 2.9 nM
- IC50 (second compound 0.316 µM): 1.08 nM
- IC50 (second compound 1 µM): < 0.949 nM
- IC50 (second compound 3.16 µM): < 0.949 nM
- IC50 (second compound 10 µM): < 0.949 nM
Compound: CC(C)CC(NC(=O)C(Cc1ccccc1)NC(=O)c1cnccn1)B(O)O (configuration not stated) + CNC(=O)c1ccc(Nc2nc(OC3CCCC3)c3c(-c4ccc5nc(C)oc5c4)c[nH]c3n2)c(OC)c1
- viability, T/C (second compound 0.0316 µM, first compound 0.000949 µM): 104%
- viability, T/C (second compound 0.0316 µM, first compound 0.003 µM): 41%
- viability, T/C (second compound 0.0316 µM, first compound 0.00949 µM): 3.37%
- viability, T/C (second compound 0.0316 µM, first compound 0.03 µM): 3.93%
- viability, T/C (second compound 0.0316 µM, first compound 0.0949 µM): 1%
- viability, T/C (second compound 0.0316 µM, first compound 0.3 µM): 1.85%
- viability, T/C (second compound 0.1 µM, first compound 0.000949 µM): 108%
- viability, T/C (second compound 0.1 µM, first compound 0.003 µM): 48.3%
- viability, T/C (second compound 0.1 µM, first compound 0.00949 µM): 0.31%
- viability, T/C (second compound 0.1 µM, first compound 0.03 µM): 2.58%
- viability, T/C (second compound 0.1 µM, first compound 0.0949 µM): 2.61%
- viability, T/C (second compound 0.1 µM, first compound 0.3 µM): 0.65%
- viability, T/C (second compound 0.316 µM, first compound 0.000949 µM): 54.1%
- viability, T/C (second compound 0.316 µM, first compound 0.003 µM): 18.6%
- viability, T/C (second compound 0.316 µM, first compound 0.00949 µM): 1.42%
- viability, T/C (second compound 0.316 µM, first compound 0.03 µM): 3.86%
- viability, T/C (second compound 0.316 µM, first compound 0.0949 µM): 1.32%
- viability, T/C (second compound 0.316 µM, first compound 0.3 µM): 0.81%
- viability, T/C (second compound 1 µM, first compound 0.000949 µM): 41.6%
- viability, T/C (second compound 1 µM, first compound 0.003 µM): 7.07%
- viability, T/C (second compound 1 µM, first compound 0.00949 µM): 2.43%
- viability, T/C (second compound 1 µM, first compound 0.03 µM): 2.96%
- viability, T/C (second compound 1 µM, first compound 0.0949 µM): 3.35%
- viability, T/C (second compound 1 µM, first compound 0.3 µM): 1.14%
- viability, T/C (second compound 3.16 µM, first compound 0.000949 µM): 30.4%
- viability, T/C (second compound 3.16 µM, first compound 0.003 µM): 3.95%
- viability, T/C (second compound 3.16 µM, first compound 0.00949 µM): 1.54%
- viability, T/C (second compound 3.16 µM, first compound 0.03 µM): 1.66%
- viability, T/C (second compound 3.16 µM, first compound 0.0949 µM): 2.98%
- viability, T/C (second compound 3.16 µM, first compound 0.3 µM): 0.23%
- viability, T/C (second compound 10 µM, first compound 0.000949 µM): 28.3%
- viability, T/C (second compound 10 µM, first compound 0.003 µM): 2.63%
- viability, T/C (second compound 10 µM, first compound 0.00949 µM): 1.46%
- viability, T/C (second compound 10 µM, first compound 0.03 µM): 3.63%
- viability, T/C (second compound 10 µM, first compound 0.0949 µM): 1.96%
- viability, T/C (second compound 10 µM, first compound 0.3 µM): 0.7%
